From US4843066A, “Novel adenosine derivatives and pharmaceutical composition containing them as an active ingredient” (priority 1986, dated 1989)
Read-outs that look alike come from different tables or passages of the source.

What was measured:
[1] = system: spontaneously hypertensive rats (SHR); test: Antihypertensive activity (blood pressure after oral administration); type: in vivo; conditions: for inhibition in vivo at 200 mg/kg / inhibition in vivo at 100 mg/kg / inhibition in vivo at 10 mg/kg / inhibition in vivo at 30 mg/kg: Rattus norvegicus, decrease vs before; for inhibition in vivo at 200 mg/kg / Blood pressure 2 hrs / Blood pressure 4 hrs / Blood pressure 6 hrs / inhibition in vivo at 100 mg/kg / inhibition in vivo at 10 mg/kg / inhibition in vivo at 30 mg/kg: SHR; for Blood pressure 2 hrs: 2 hrs after administration; for Blood pressure 2 hrs / Blood pressure 4 hrs / Blood pressure 6 hrs: mean ± S.E.; for Blood pressure 4 hrs: 4 hrs after administration; for Blood pressure 6 hrs: 6 hrs after administration
Experimental: The test compounds, which were dissolved or suspended in 0.5% C.M.C. aqueous solution, were orally administered to groups of 3 or 4 spontaneously hypertensive rats (SHR), weighing about 300 to 400 g. Blood pressure was measured before and 2, 4 and 6 hours after the administration.

[2] = in vivo
in vivo = conditions: mouse, oral, in 0.5% C.M.C., ddY male mice, death rate for 7 days
[3] = oral 200 mg/kg, 2 hrs, read-out: Blood pressure 2 hrs [Decrease]
[4] = oral 200 mg/kg, 4 hrs, read-out: Blood pressure 4 hrs [Decrease]
[5] = oral 200 mg/kg, 6 hrs, read-out: Blood pressure 6 hrs [Decrease]
[6] = oral 100 mg/kg, 2 hrs, read-out: Blood pressure 2 hrs [Decrease]
[7] = oral 100 mg/kg, 4 hrs, read-out: Blood pressure 4 hrs [Decrease]
[8] = oral 100 mg/kg, 6 hrs, read-out: Blood pressure 6 hrs [Decrease]
[9] = oral 10 mg/kg, 2 hrs, read-out: Blood pressure 2 hrs [Decrease]
[10] = oral 10 mg/kg, 4 hrs, read-out: Blood pressure 4 hrs [Decrease]
[11] = oral 10 mg/kg, 6 hrs, read-out: Blood pressure 6 hrs [Decrease]
[12] = oral 30 mg/kg, 2 hrs, read-out: Blood pressure 2 hrs [Decrease]
[13] = oral 30 mg/kg, 4 hrs, read-out: Blood pressure 4 hrs [Decrease]
[14] = oral 30 mg/kg, 6 hrs, read-out: Blood pressure 6 hrs [Decrease]

## Nc1ncnc2c1ncn2[C@@H]1O[C@H](CO)[C@@H](O)[C@H]1O [Adenosine, adenosine]
[1]; [3]
  inhibition in vivo at 200 mg/kg: -6.1%
[1]; [4]
  inhibition in vivo at 200 mg/kg: 1.8%
[1]; [5]
  inhibition in vivo at 200 mg/kg: -3.2%
[1]; oral 200 mg/kg
  Blood pressure 2 hrs: 202 ± 12 mmHg
  Blood pressure 4 hrs: 187 ± 3 mmHg
  Blood pressure 6 hrs: 198 ± 4 mmHg
[1]; oral administration
  hypotensive effect (in words): does not decrease blood pressure
[2]
  bradycardia (side effect): Bradycardia was observed

## CO[C@@H]1[C@H](O)[C@@H](CO)O[C@H]1n1cnc2c(N)ncnc21 [Compound 1, 2'-O-methyladenosine]
In vivo
  LD50 at 168 h: > 2000 mg/kg
[1]; [3]
  inhibition in vivo at 200 mg/kg: 53.2%
[1]; [4]
  inhibition in vivo at 200 mg/kg: 45.8%
[1]; [5]
  inhibition in vivo at 200 mg/kg: 42.8%
[1]; oral 200 mg/kg
  Blood pressure 2 hrs: 103 ± 21 mmHg
  Blood pressure 4 hrs: 121 ± 32 mmHg
  Blood pressure 6 hrs: 128 ± 41 mmHg

## CO[C@H]1[C@@H](O)[C@H](n2cnc3c(N)ncnc32)O[C@@H]1CO [Compound 2, 3'-O-methyladenosine]
In vivo
  LD50 at 168 h: > 2000 mg/kg
[1]; [3]
  inhibition in vivo at 200 mg/kg: 41.2%
[1]; [4]
  inhibition in vivo at 200 mg/kg: 29%
[1]; [5]
  inhibition in vivo at 200 mg/kg: 27.2%
[1]; oral 200 mg/kg
  Blood pressure 2 hrs: 135 ± 28 mmHg
  Blood pressure 4 hrs: 163 ± 40 mmHg
  Blood pressure 6 hrs: 167 ± 47 mmHg

## CCO[C@@H]1[C@H](O)[C@@H](CO)O[C@H]1n1cnc2c(N)ncnc21 [Compound 3, 2'-O-ethyladenosine]
In vivo
  LD50 at 168 h: 750 to 1000 mg/kg
[1]; [6]
  inhibition in vivo at 100 mg/kg: 52.2%
[1]; [7]
  inhibition in vivo at 100 mg/kg: 49.5%
[1]; [8]
  inhibition in vivo at 100 mg/kg: 47.3%
[1]; oral 100 mg/kg
  Blood pressure 2 hrs: 102 ± 15 mmHg
  Blood pressure 4 hrs: 106 ± 20 mmHg
  Blood pressure 6 hrs: 111 ± 26 mmHg

## CO[C@@H]1[C@H](O)[C@@H](CO)O[C@H]1n1cnc2c(N)nc(C)nc21 [Compound 5, 2,2'-O-dimethyladenosine]
In vivo
  LD50 at 168 h: 540 mg/kg
[1]; [9]
  inhibition in vivo at 10 mg/kg: 40.2%
[1]; [10]
  inhibition in vivo at 10 mg/kg: 26.5%
[1]; [11]
  inhibition in vivo at 10 mg/kg: 12.7%
[1]; oral 10 mg/kg
  Blood pressure 2 hrs: 131 ± 6 mmHg
  Blood pressure 4 hrs: 161 ± 11 mmHg
  Blood pressure 6 hrs: 193 ± 24 mmHg

## CCO[C@@H]1[C@H](O)[C@@H](CO)O[C@H]1n1cnc2c(N)nc(C)nc21 [Compound 9, 2-methyl-2'-O-ethyladenosine]
In vivo
  LD50 at 168 h: 500 to 1000 mg/kg
[1]; [12]
  inhibition in vivo at 30 mg/kg: 23.6%
[1]; [13]
  inhibition in vivo at 30 mg/kg: 10.7%
[1]; [14]
  inhibition in vivo at 30 mg/kg: 13.5%
[1]; oral 30 mg/kg
  Blood pressure 2 hrs: 169 ± 7 mmHg
  Blood pressure 4 hrs: 197 ± 5 mmHg
  Blood pressure 6 hrs: 191 ± 9 mmHg

## COC[C@H]1O[C@@H](n2cnc3c(N)ncnc32)[C@H](O)[C@@H]1O [Compound 11, 5'-O-methyladenosine]
In vivo
  LD50 at 168 h: 800 mg/kg
[1]; [12]
  inhibition in vivo at 30 mg/kg: 18.2%
[1]; [13]
  inhibition in vivo at 30 mg/kg: 5.9%
[1]; [14]
  inhibition in vivo at 30 mg/kg: 6.6%
[1]; oral 30 mg/kg
  Blood pressure 2 hrs: 189 ± 3 mmHg
  Blood pressure 4 hrs: 206 ± 10 mmHg
  Blood pressure 6 hrs: 204 ± 9 mmHg

## COC[C@H]1O[C@@H](n2cnc3c(N)nc(C)nc32)[C@H](O)[C@@H]1O [Compound 15, 2,5'-O-dimethyladenosine]
In vivo
  LD50 at 168 h: 500 to 1000 mg/kg
[1]; [9]
  inhibition in vivo at 10 mg/kg: 35.2%
[1]; [10]
  inhibition in vivo at 10 mg/kg: 17.7%
[1]; [11]
  inhibition in vivo at 10 mg/kg: 9.1%
[1]; oral 10 mg/kg
  Blood pressure 2 hrs: 154 ± 13 mmHg
  Blood pressure 4 hrs: 195 ± 22 mmHg
  Blood pressure 6 hrs: 215 ± 5 mmHg

## CNc1ncnc2c1ncn2[C@@H]1O[C@H](CO)[C@@H](O)[C@H]1OC [Compound 17, N^6-2'-O-dimethyladenosine]
[1]; [12]
  inhibition in vivo at 30 mg/kg: 17.1%
[1]; [13]
  inhibition in vivo at 30 mg/kg: 11.7%
[1]; [14]
  inhibition in vivo at 30 mg/kg: 14.1%
[1]; oral 30 mg/kg
  Blood pressure 2 hrs: 192 ± 15 mmHg
  Blood pressure 4 hrs: 204 ± 5 mmHg
  Blood pressure 6 hrs: 199 ± 8 mmHg

## CNc1ncnc2c1ncn2[C@@H]1O[C@H](COC)[C@@H](O)[C@H]1O [Compound 19, N^6-5'-O-dimethyladenosine]
In vivo
  LD50 at 168 h: 1300 mg/kg
[1]; [12]
  inhibition in vivo at 30 mg/kg: 43%
[1]; [13]
  inhibition in vivo at 30 mg/kg: 27.1%
[1]; [14]
  inhibition in vivo at 30 mg/kg: 26.3%
[1]; oral 30 mg/kg
  Blood pressure 2 hrs: 122 ± 8 mmHg
  Blood pressure 4 hrs: 155 ± 7 mmHg
  Blood pressure 6 hrs: 157 ± 12 mmHg

## CNc1nc(C)nc2c1ncn2[C@@H]1O[C@H](CO)[C@@H](O)[C@H]1OC [Compound 21, 2,N^6,2'-O-trimethyladenosine]
In vivo
  LD50 at 168 h: ~400 mg/kg
[1]; [12]
  inhibition in vivo at 30 mg/kg: 23.9%
[1]; [13]
  inhibition in vivo at 30 mg/kg: 16.9%
[1]; [14]
  inhibition in vivo at 30 mg/kg: 10.8%
[1]; oral 30 mg/kg
  Blood pressure 2 hrs: 159 ± 20 mmHg
  Blood pressure 4 hrs: 172 ± 7 mmHg
  Blood pressure 6 hrs: 188 ± 8 mmHg

## CCO[C@@H]1[C@H](O)[C@@H](CO)O[C@H]1n1cnc2c(NC)nc(C)nc21 [Compound 22, 2,N^6-dimethyl-2'-O-ethyladenosine]
In vivo
  LD50 at 168 h: ~400 mg/kg
[1]; [9]
  inhibition in vivo at 10 mg/kg: 25.8%
[1]; [10]
  inhibition in vivo at 10 mg/kg: 18.8%
[1]; [11]
  inhibition in vivo at 10 mg/kg: 13.1%
[1]; oral 10 mg/kg
  Blood pressure 2 hrs: 168 ± 6 mmHg
  Blood pressure 4 hrs: 185 ± 7 mmHg
  Blood pressure 6 hrs: 197 ± 3 mmHg

## CNc1nc(C)nc2c1ncn2[C@@H]1O[C@H](COC)[C@@H](O)[C@H]1O [Compound 24, 2,N^6,5'-O-trimethyladenosine]
In vivo
  LD50 at 168 h: 1320 mg/kg
[1]; [9]
  inhibition in vivo at 10 mg/kg: 43.3%
[1]; [10]
  inhibition in vivo at 10 mg/kg: 27%
[1]; [11]
  inhibition in vivo at 10 mg/kg: 23%
[1]; oral 10 mg/kg
  Blood pressure 2 hrs: 128 ± 7 mmHg
  Blood pressure 4 hrs: 165 ± 7 mmHg
  Blood pressure 6 hrs: 174 ± 4 mmHg

## CO[C@@H]1[C@H](O)[C@@H](CO)O[C@H]1n1cnc2c(N)nc(Cl)nc21 [Compound 27, 2-chloro-2'-O-methyladenosine]
In vivo
  LD50 at 168 h: ~400 mg/kg
[1]; [6]
  inhibition in vivo at 100 mg/kg: 68.4%
[1]; [7]
  inhibition in vivo at 100 mg/kg: 64.8%
[1]; [8]
  inhibition in vivo at 100 mg/kg: 66.9%
[1]; oral 100 mg/kg
  Blood pressure 2 hrs: 70 ± 10 mmHg
  Blood pressure 4 hrs: 78 ± 8 mmHg
  Blood pressure 6 hrs: 73 ± 16 mmHg

## CO[C@@H]1[C@H](O)[C@@H](CO)O[C@H]1n1cnc2c(N)nc(F)nc21 [Compound 29, 2-fluoro-2'-O-methyladenosine]
In vivo
  LD50 at 168 h: > 2000 mg/kg
[1]; [12]
  inhibition in vivo at 30 mg/kg: 45.9%
[1]; [13]
  inhibition in vivo at 30 mg/kg: 19.8%
[1]; [14]
  inhibition in vivo at 30 mg/kg: 16.4%
[1]; oral 30 mg/kg
  Blood pressure 2 hrs: 131 ± 4 mmHg
  Blood pressure 4 hrs: 195 ± 5 mmHg
  Blood pressure 6 hrs: 204 ± 3 mmHg
